Laboratory results taken from patent US20140093935A1, “CHARGED TRIPLET-STATE QUENCHERS FOR MITIGATION OF PHOTO-INDUCED DAMAGE” (Pacific Biosciences of California, Inc., priority 2012, published 2014).

Tests used:
fluorophore blinking = test: Sequencing-by-synthesis assay, interpulse duration / very short dark periods (blinkiness); assay type: biochemical; conditions: 3 μM and 5 μM of compound compared with 1 mM of the charged nitrophenyl photoprotective moiety; FIG. 7
Method: One measure of photoprotective benefit is monitoring “blinkiness” of dyes in a reaction mixture. For example, in a reaction in which dye-labeled reactants are being observed as they cyclically interact with an unlabeled reactant, the time between interaction events is a length of time during which no dye is present, or a “dark” period. Given certain reaction parameters, e.g., diffusion rates and concentration of the labeled reactant, a distribution of dark periods is measured that centers around a value that is an average time between interaction events. This distribution curve can be perturbed by dye blinking since such blinking introduces a very brief dark period during an interaction event. These blinking-induced dark periods introduce an aberrant peak in the dark period distribution resulting in a peak that is outside of the normal distribution and representing dark periods that are too short to be explained by the reaction parameters. Blinkiness is increased when a dye is excited to the triplet state and there is insufficient photo-induced damage mitigation to quickly return it to a non-triplet state. […]
Experiments were conducted using a single-molecule, real-time (SMRT®) sequencing instrument. […] Sequencing was initiated and reactions were monitored in real time. The fluorescence emissions were recorded, processed, and analyzed. […]

phi29 polymerase enzyme = test: Sequencing-by-synthesis assay, polymerase survival as a function of number of bases sequenced; assay type: biochemical
Text: In various embodiments, the amount of photo-induced damage that occurs in a reaction mixture of the invention is detectably less than the amount of photo-induced damage that occurs in the absence of a photoprotective additive according to Formula I or Formula II. Photo-induced damage can be measured in different ways, depending on the particular analytical reaction. One way is by monitoring blinkiness of a fluorescent dye in the reaction, as further explained above. In other embodiments, the amount of photo-induced damage is measured as a length of time a reaction can proceed, e.g., the survival time for an enzyme catalyzing a reaction. For example, in a nucleic acid sequencing-by-synthesis reaction, a proxy for the level of photo-induced damage can be the length of the nascent strand synthesized and/or the length of the sequencing read generated. […]
Experiments were conducted using a single-molecule, real-time (SMRT®) sequencing instrument. […] Sequencing was initiated and reactions were monitored in real time. The fluorescence emissions were recorded, processed, and analyzed.
Further analysis of the fluorescent emissions included measurement of polymerase enzyme survival in the reaction as a function of number of bases sequenced. Another measure of photo-induced damage was the average read length produced in the sequencing reaction.

O=C(CNc1cccc([N+](=O)[O-])c1)NCCCCCCOP(=O)(O)OP(=O)(O)OP(=O)(O)OP(=O)(O)OP(=O)(O)O [TSQ001-6C-5P]
reducing the incidence of very short dark periods (proxy for blinkiness) (fluorophore blinking): as effective | increasing survival of a polymerase enzyme (phi29 polymerase enzyme; 1.5, 3, and 5 μM of compound compared with 1 mM of the charged nitrophenyl photoprotective moiety, FIG. 8): more effective | polymerase survival in a sequencing-by-synthesis reaction is increased (phi29 polymerase enzyme; as compared to the photoprotective moiety alone, by various measures (data not shown)): 15-25%
